Source: US6265423A, “Aromatic polycyclic retinoid-type derivatives, method for preparing same, and use thereof for making pharmaceutical and cosmetic compositions” (priority 1996, dated 2001)

Tests used:
[1] = tested on: ZR-75-1 human mammary cancer cells; test: MTT test, proliferation of ZR-75-1; type: cell-based; conditions: Homo sapiens, 72 h, control = 100%, read-out: level of proliferation; for activity at 100 µM: ZR-75-1, 10^-4 M; for activity at 1 µM: ZR-75-1, 10^-6 M; for activity at 0.01 µM: ZR-75-1, 10^-8 M
Protocol: (§1) The cells that were cultured came from the ATCC (American Type Culture Collection).
(§2) The cellular lines are kept in culture in a monolayer at 37° C. in closed culture dishes (Nunc. Gibco BRL, Life Technologies, Belgium) containing the minimum essential medium (MEM, Gibco) supplemented with 5% of Foetal Calf Serum, (FCS, Gibco), 0.6 mg/ml of glutamine (Gibco) and a mixture of 200 IU/mi of penicillin (Gibco), 200 μg/ml of streptomycin (Gibco) and 0.1 mg/ml of gentamycin (Gibco). The foetal calf serum is decomplemented for 1 hour at 56° C.
(§3) This test is based on the mitochondrial reduction by living metabolically active cells of the MTT (3-(4,5-dimethylthiazol-2-yl)-2,5-diphenyltetrazolium bromide) of yellowish colour into a blue coloured product, formazan. The quantity of formazan obtained is directly proportional to the number of living cells. After incubation of the cells for 24 hours in microplates with 96 flat bottomed wells, the culture medium is replaced by 100 μl of fresh culture medium containing the drug to be tested.
(§4) The microplates are then incubated for 3 hours at 37° C. and centrifuged for 10 minutes at 400 g (GPR centrifuge, Beckman). The MTT solution is replaced by 100 μl of dimethylsulphoxide (Merck). The microplates are agitated (Vari-Shaker, Dynatech) for 10 minutes.
(§5) In the microplates, the control cells like the treated cells were incubated in a medium without the compounds to be tested for 24 hours. The control cells are incubated in a medium without a drug throughout the whole experiment, while the treated cells are incubated in different media. These media contain the molecule to be tested at various concentrations: 10^-8 M, 10^-6 M and 10^-4 M. All the tests are carried out in 6 duplicates.
(§6) The statistical comparisons are carried out according to the Fisher Test:
(§7) The mean optical density measured for each experimental condition is expressed as a percentage in relation to the laid down control condition being equal to 100%.

[2] = tested on: T-47D human mammary cancer cells; test: MTT test, proliferation of T-47D; type: cell-based; conditions: Homo sapiens, T47D, T-47D, 72 h, control = 100%, read-out: level of proliferation; for activity at 100 µM: 10^-4 M; for activity at 1 µM: 10^-6 M; for activity at 0.01 µM: 10^-8 M
Protocol: as §1, §2, §3, §4, §5, §6, §7

[3] = tested on: A549 human pulmonary cancer cells; test: MTT test, proliferation of A549; type: cell-based; conditions: Homo sapiens, 72 h, control = 100%, read-out: level of proliferation; for activity at 100 µM: A549, 10^-4 M; for activity at 1 µM: A549, 10^-6 M; for activity at 0.01 µM: A549, 10^-8 M
[4] = tested on: human mammary tumoral lineage T-47D; test: Clonogenic test (soft agar), growth of cellular colonies; type: cell-based; conditions: T-47D; for activity at 0.01 µM / activity at 0.001 µM / activity at 0.0001 µM / activity at 0.1 µM: Homo sapiens, T47D, 504 h, read-out: mean number of cellular colonies in relation to control; for activity at 0.01 µM / activity at 0.001 µM / activity at 0.0001 µM / mean number of cellular colonies in relation to control / activity at 0.1 µM: 21 days, control = 100%; for activity at 0.1 µM: 10^-7 M; for effect on growth of cellular colonies (in words): soft agar
From the text: The human tumour stem cells are the clonogenic cells which are the origin of the neoplasic cells which constitute a given tumour. These tumour stem cells are responsible for the recidivism process observable after surgical resection of the primary tumours and are also responsible for the formation of metastases. […] At the level of a tumour or of a tumoral cellular lineage, these clonogenic stem cells distinguish themselves from other clonogenic cells of the tumour or of the neoplasic cellular lineage being considered, by the fact that they preserve their ability to proliferate in the absence of any solid support.
This technique is suitable for the culturing in vitro of most of the tumours and tumoral cellular lineages of various histological types. In the context of this test, the neoplastic cells are cultured on a semi-solid culture medium "soft agar" made up of a mixture of agar and agarose. On this selective support, only tumoral stem cells survive and proliferate. […] The morphological characteristics and the growth of the cellular colonies are also a function of the histological type of the tumours being considered.
These culture conditions are also called "anchorage-independent" conditions.
The base medium "MEM 25 MM HEPES" (Minimum Essential Medium, Life Technologies, Belgium) contains Eagle salts but no L-glutamine. This medium is well suited to the growth of a range of varied diploid cells or primary mammal cells. To this medium is then added:
The tumoral cells are maintained in culture in 25 cm^2 falcon dishes (Life Technologies, Belgium). They are then trypsinised and individualised. Their rate of viability is determined by coloration with trypan blue (Sigma, Belgium). It must be greater than 90%. In the case where this condition is kept to, a cellular suspension at the desired concentration is prepared in a solution of agar at 0. 3%. The cells are then seeded between two layers of agar (Sigma, Belgium) and in 35 mm Petri dishes (Life Technologies, Belgium). The base layer is made up of a 0.5% solution of agar and the top layer is made up of a 0.3% solution of agar. The cupules are then positioned and held in an incubator at 37° C. and 5% of CO2. […] After treatment, the cupules are kept in the incubator for 21 days. It is advisable to examine, during the course of the experiment, the appearance and the increase of the cellular colonies. If after 10 days, no colony appears or is developing, the experiment must be repeated. In the contrary case, on the 21st day, 100 μl of an MTT solution (3-(4,5-dimethylthiazol-2-yl)-2,5 diphenyl tetrazolium bromide; Sigma, Belgium) dissolved in the RPMI culture medium (Roswell park Memorial Institute, Life Technologies, Belgium), at the concentration of 1 mg/ml are deposited on the top layer of the group of cupules. The cells are kept in contact with this solution for a minimum of 3 hours at 37° C.
Using an inverted microscope at low magnification, the number of clones whose surface area is greater thar. 100 μm^2 is determined for the group of cupules representing all the different experimental conditions. Then, for each of these experimental conditions, the mean number of cellular colonies±the standard error on the mean (ESM) is calculated.
The mean number of cellular colonies determined for each experimental condition is expressed as a percentage in relation to the control condition made equal to 100%.

[5] = tested on: A-427 human pulmonary cancer cells; test: MTT test, proliferation of A-427; conditions: Homo sapiens, A-427, 72 h, read-out: level of proliferation
[6] = tested on: AP-1, MTLN lineage (MCF-7); test: Anti-AP-1 effect, MTLN lineage activated by TPA; type: cell-based, human
Protocol: (§8) Certain properties of the retinoids have been determined using more developed cellular models. These models consist of cellular lineages transfected in a stable fashion by recombinant plasmids which place the expression of the gene of the luciferase under the control of different nuclear response elements. […] The tests carried out in duplicate are described below for each of these models.
The anti-factor AP-1 transrepressor effect of retinoids is determined using the MTLN lineage, coming from MCF-7 cells transfected in a stable fashion by a vector p(TRE)3 -tk-Luc which places the expression of the gene of luciferase under the control of […]. TPA activates the AP-1 complex formed from proteins of the family of nuclear proto-oncogenes (c-Jun and c-Fos). […] The experiments are made with the MTLN cells activated by 10^-7 M TPA.
The effect of the compounds on the MTLN cells activated by 10^-7 M TPA is expressed as a percentage. […] The inhibitive properties of the products are calculated after deduction of the base activity of the cells. The percentages reported correspond to a range of inhibitions determined from several experiments.

[7] = tested on: ERE-βGlob-Luc, MELN lineage (MCF-7); test: Anti-oestrogenic effect, MELN lineage activated by estradiol; type: cell-based, human
From the text: as §8
MCF-7 cells express RARα,γ and RXRα. The transfection of MCF-7 cells by an oestrogen-dependent gene (ERE-βGlob-Luc) has permitted the establishment of the MELN cellular lineage, used to determine the anti-oestrogenic activity of the retinoids. These cells contain the gene of the luciferase under the transcriptional control of the promoter of the βGlobine and of the response element ERE isolated from the gene of chicken vitelogenine A2. The experiments are carried out with MELN cells activated by 10^-9 M estradiol. The level of base activity of the MELN cells is obtained with the anti-oestrogen 1 μM 4-OH-tamoxifen (hydroxytamoxifen).
The effect of the products tested on the cells activated by 10^-9 M estradiol is expressed as a percentage, the level of base activity being deducted.

## C/C(=C/c1cc2c(cc1C)C(C)(C)CCC2(C)C)c1ccc(-c2nnn[nH]2)cc1 [CB61692]
[1]
  activity at 100 µM: 0%
  activity at 1 µM: 89.5%
  activity at 0.01 µM: 93.2%
[2]
  activity at 100 µM: 0%
  activity at 1 µM: 93.8%
  activity at 0.01 µM: 106%
[3]
  activity at 100 µM: 0%
  activity at 1 µM: 98.2%
  activity at 0.01 µM: 106%
[4]; 10^-8 M
  activity at 0.01 µM: 55.7 ± 2.6%
[4]; 10^-9 M
  activity at 0.001 µM: 41.5 ± 5.7%
[4]; 10^-10 M
  activity at 0.0001 µM: 90.3 ± 4.7%
[5]
  activity at 0.01 µM: 105%
  activity at 1 µM: 107%
  activity at 100 µM: 0.6%

## CC1(C)CCC(C)(C)c2cc(C(=O)Nc3ccc(C(=O)O)cc3)ccc21 [Am580, 4-[(5,6,7,8-tetrahydro-5,5,8,8-tetramethyl-2-naphthalenyl)carboxamido]benzoic acid, reference compound]
[6]; Homo sapiens, MCF7, 10^-7 M, cells activated by 10^-7 M TPA, range of several experiments, read-out: anti-AP-1 effect, inhibition
  inhibition at 0.1 µM: 41 to 48%
[6]; Homo sapiens, MCF7, 10^-8 M, cells activated by 10^-7 M TPA, range of several experiments, read-out: anti-AP-1 effect, inhibition
  inhibition at 0.01 µM: 40 to 46%
[7]; Homo sapiens, MCF7, 10^-8 M, cells activated by 10^-9 M estradiol, read-out: anti-oestrogenic effect, inhibition
  inhibition at 0.01 µM: 36 to 51%
[7]; MELN, estradiol 10^-9 M
  anti-oestrogenic effect, inhibition (of the order of): ~40%

## Cc1cc2c(cc1/C=C1\CCc3cc(C(=O)O)ccc31)C(C)(C)CCC2(C)C [CB40341]
[4]; 10^-8 M, 0.01 µM
  mean number of cellular colonies in relation to control: 65.6 ± 9.5%
[4]; 10^-9 M, 0.001 µM
  mean number of cellular colonies in relation to control: 90.8 ± 0.8%
[4]; 10^-10 M, 0.0001 µM
  mean number of cellular colonies in relation to control: 99.1 ± 9.7%

## CC1=C(/C=C/C(C)=C/C=C/C(C)=C/C(=O)Nc2ccc(O)cc2)C(C)(C)CCC1 [CB05764, reference compound]
[1]
  activity at 100 µM: 0.6%
  activity at 1 µM: 81.9%
  activity at 0.01 µM: 97.3%
[2]
  activity at 100 µM: 0%
  activity at 1 µM: 66.4%
  activity at 0.01 µM: 82.5%
[4]
  activity at 0.1 µM: 18.8%
  effect on growth of cellular colonies (in words): strongly active at concentration 10^-7 M loses its significant inhibiting activity beyond the concentration of 10^-9 M
[4]; 10^-8 M
  activity at 0.01 µM: 33.6%
[4]; 10^-9 M
  activity at 0.001 µM: 83.3%
[4]; 10^-10 M
  activity at 0.0001 µM: 80.3%

## CCCCCCCOc1cc2c(cc1/C(C)=C/c1ccc(C(=O)O)cc1)C(C)(C)CCS2(=O)=O [Ro 41-5253, reference compound]
[6]; TPA-activated MTLN cells
  anti-AP-1 effect (in words): does not allow the inhibition induced by TTNPB to be totally lifted
[7]; estradiol-activated MELN cells
  anti-oestrogenic effect (in words): raises the inhibitor effect of Am580 and also of TTNPB

## CC/C(=C(\c1ccccc1)c1ccc(OCCN(C)C)cc1)c1ccccc1 [CB58707, tamoxifen, reference compound]
[4]
  activity at 0.1 µM: 31.3%
  effect on growth of cellular colonies (in words): significant inhibition in the growth of these colonies but its activity is not dose dependent
[4]; 10^-8 M
  activity at 0.01 µM: 46.9%
[4]; 10^-9 M
  activity at 0.001 µM: 35.5%
[4]; 10^-10 M
  activity at 0.0001 µM: 56.7%

## C/C(=C/c1ccc2c(c1)C(C)(C)CCC2(C)C)c1cc(C(=O)O)no1 [CB73069]
[7]; Homo sapiens, MCF7, 10^-6 M, cells activated by 10^-9 M estradiol
  inhibition: 17 to 21%

## Cc1cc2c(cc1/C=C1/CCc3cc(-c4nnn[nH]4)ccc31)C(C)(C)CCC2(C)C [CB02981]
[4]; 10^-8 M, 0.01 µM
  mean number of cellular colonies in relation to control: 48.8 ± 5.3%
[4]; 10^-9 M, 0.001 µM
  mean number of cellular colonies in relation to control: 67.6 ± 8.9%
[4]; 10^-10 M, 0.0001 µM
  mean number of cellular colonies in relation to control: 80.1 ± 13.2%

## C/C(=C/c1ccc2c(c1)C(C)(C)CCS2(=O)=O)c1ccc(C(=O)O)cc1 [CB72484]
[1]
  activity at 100 µM: 129%
  activity at 1 µM: 138%
  activity at 0.01 µM: 145%
[2]
  activity at 100 µM: 99%
  activity at 1 µM: 128%
  activity at 0.01 µM: 129%
[3]
  activity at 100 µM: 129%
  activity at 1 µM: 111%
  activity at 0.01 µM: 114%
[5]
  activity at 0.01 µM: 131%
  activity at 1 µM: 130%
  activity at 100 µM: 182%
